{
  "source": "patent US12286439B2",
  "about": "“Inhibitors of ERK nuclear translocation” (Yeda Research and Development Co. Ltd., priority 2018, dated 2025)",
  "key": {"PC3 cells": {"tested_on": "PC3 cells", "test": "Dose-response analysis, PC3 cells", "format": "cell-based", "conditions": "10 μM, 72 hours", "description": "(§1) FIG. 15A presents dose response curves of compounds C17, D3, D11 and D14 on 8 cancer cells. Five melanoma cell lines (A2185, A2352, A2024, A2058 and LOX-IMVI), HeLa, HCT-116 and PC3 cells were grown in 1% FCS media containing either DMSO (0.1%), EPE peptide (10 μM), or Compounds C17, D3, D11, D14 at the indicated concentrations, for 72 hours. Viable cells were quantified by staining with methylene blue. Data presented as percentage of DMSO control ±SE of triplicates. […] IC50 values were calculated by interpolation in the curves in FIG. 15A. […] Bar graphs represent average viability respect to DMSO control ±SE of triplicates.\n(§2) Cell Viability (IC50) Assay:\n(§3) Cells were seeded at a density of 4000 cells per well into 96-well plates in complete medium. After 24 hours, medium was replaced by 1% FCS (fetal calf serum) containing appropriate treatments. Fresh medium containing the same agents was replaced every day. After 96 hours, cell viability was assessed using the CellTiter-Glo reagent (Promega; Madison, WI). IC50 values were determined using GraphPad Prism."}, "[1]": {"tested_on": "ERK1/2 nuclear translocation", "test": "Determination of ERK1/2 localization by fluorescence microscopy after TPA stimulation", "format": "cell-based", "conditions": "10 μM, TPA 100 nM, 15 minutes", "description": "Determination of Protein Localization by Fluorescence Microscopy:\nIndicated cells were seeded on coverslips (coated with 0.001% w/v poly-L-lysine or not, depending on the cell line) at 50% confluency. After the indicated treatment, cells were fixed in 4% paraformaldehyde/PBS for 20 minutes on an ice surface, permeabilized with 0.1% Triton X-100/PBS for 5 minutes at 23° C., then blocked in 2% BSA/PBS for 30 minutes at 23° C. The fixed cells were sequentially incubated with appropriate antibodies (in 2% BSA/PBS, 1.5 hour), washed 3 times with PBS^−/−, and followed by incubation with either Cy-2-conjugated or rhodamine-conjugated secondary antibodies (1:200) and with DAPI ([…]; 1:100) in 2% BSA/PBS for 45 minutes. Slides were analyzed and photographed by a fluorescence microscope (Olympus BX51, ×40). Background correction, and contrast adjustment of raw data images were performed using Photoshop (Adobe, CA, USA).\nThe effect of Z56 was compared with that of the inhibitory effect of EPE peptide on nuclear translocation of ERK1/2.\nThe effects of the compounds on ERK1/2 nuclear translocation were evaluated in three cell lines (HeLa cells and two melanoma cell lines, A2185 and A2352), by treating the cells with each compound for two hours, and determining nuclear translocation using fluorescent anti-ERK antibodies, according to procedures described hereinabove."}, "A2058 cells": {"tested_on": "A2058 cells", "test": "Dose-response analysis, A2058 cells", "format": "cell-based", "conditions": "10 μM", "description": "as §1, §2, §3"}, "[2]": {"tested_on": "BRAF-mutant, NRAS-mutant and NF1-mutant melanomas", "conditions": "Arafeh et al., Sci Rep 2017; cited from earlier work"}, "[3]": {"target": "interaction of importin7 and ERK1/2 (Homo sapiens, UniProt O95373)", "sequence (O95373 whole entry)": "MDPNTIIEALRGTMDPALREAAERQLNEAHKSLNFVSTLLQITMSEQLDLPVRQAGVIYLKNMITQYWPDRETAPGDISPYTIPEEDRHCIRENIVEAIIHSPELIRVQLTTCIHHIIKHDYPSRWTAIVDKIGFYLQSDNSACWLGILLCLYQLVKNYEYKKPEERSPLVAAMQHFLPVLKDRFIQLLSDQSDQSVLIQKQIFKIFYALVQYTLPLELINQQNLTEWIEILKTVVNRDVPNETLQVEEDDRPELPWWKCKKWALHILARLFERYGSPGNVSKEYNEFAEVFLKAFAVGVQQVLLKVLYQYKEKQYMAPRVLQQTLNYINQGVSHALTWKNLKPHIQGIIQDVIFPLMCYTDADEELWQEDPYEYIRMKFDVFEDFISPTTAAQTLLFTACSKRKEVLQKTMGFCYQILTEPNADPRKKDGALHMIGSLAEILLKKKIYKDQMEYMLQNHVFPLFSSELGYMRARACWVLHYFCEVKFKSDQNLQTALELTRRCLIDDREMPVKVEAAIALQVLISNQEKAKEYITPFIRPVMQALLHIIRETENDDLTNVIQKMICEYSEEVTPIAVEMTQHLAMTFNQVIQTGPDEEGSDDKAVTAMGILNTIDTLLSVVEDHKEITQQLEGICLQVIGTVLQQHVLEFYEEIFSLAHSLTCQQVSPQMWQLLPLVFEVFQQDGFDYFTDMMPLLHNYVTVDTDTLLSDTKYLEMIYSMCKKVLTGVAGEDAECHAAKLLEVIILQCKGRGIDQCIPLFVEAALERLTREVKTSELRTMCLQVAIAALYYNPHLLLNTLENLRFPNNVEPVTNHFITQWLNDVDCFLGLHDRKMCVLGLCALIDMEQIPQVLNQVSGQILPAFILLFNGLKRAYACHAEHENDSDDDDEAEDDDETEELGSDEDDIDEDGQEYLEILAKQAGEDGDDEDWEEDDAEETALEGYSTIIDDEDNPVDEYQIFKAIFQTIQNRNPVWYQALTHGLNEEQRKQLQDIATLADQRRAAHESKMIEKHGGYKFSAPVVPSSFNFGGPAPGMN", "conditions": "Plotnikov et al., Nat Commun 2015; cited from earlier work"}, "[4]": {"tested_on": "HeLa, A2352, A2185, LOX-IMVI, A4132, A2024, MDA-MB-231, PC3, A2058 and MCF7 cells", "test": "Viability assay (methylene blue), ten cancer cell lines", "format": "cell-based", "conditions": "10 μM, 72 hours, 1% FCS", "description": "Ten cancer cell lines were treated with either EPE peptide (10 μM; middle bars) or Compound Z56 (3 μM; right bars) or DMSO control (0.1%; left bars) in 1% FCS (fetal calf serum) for 72 hours.\nA3252 and A2058 cells were treated either with EPE peptide (10 μM), Z56 (1, 3 or 10 μM) or DMSO control (0.1%). The graphs present the kinetics of cell proliferation at the indicated times. Viable cells were quantified by staining with methylene blue. All results were presented as a fold change of the initial cell number and represent averages ±SE of 3 experiments in triplicate.\nCells were seeded at low confluence into 24, 48 or 96-well plates in complete medium. After 24 hours, medium was replaced by 1% FCS (fetal calf serum) containing appropriate treatments. Fresh medium containing the same agents was replaced every day. After 72 or 96 hours of treatment, cells were fixed with 4% formaldehyde overnight at 23° C., washed once with 0.1 M borate buffer (pH 8.5) for 10 minutes, and stained with of 1% methylene blue in 0.1 M borate buffer (pH 8.5) for 30 minutes. Excess stain was washed out with distilled water. Color was extracted by adding 0.1 M HCl (3 hours, 23° C.), and absorbance measured at 595 nm in an ELISA reader. For time course experiments, attached cells were fixed and measured at 0, 24, 48, 72 and 96 hours. […]"}, "[5]": {"tested_on": "Panc-1, AsPC-1, CFPAC-1, MIA PaCa-2, Capan-1, Capan-2 and BxPC-3 pancreatic cancer cells", "test": "Viability assay (methylene blue), pancreatic cancer cell lines", "format": "cell-based", "conditions": "10 μM, 72 hours", "description": "FIGS. 6A and 6B present data showing that Compound Z56 prevents proliferation of pancreatic cancer cells. […] Panc-1, AsPC-1, CFPAC-1, Mia PaCa-2, Capan-1, Capan-2 (Ras-transformed) and BxPC-3 (Ras-wild type) pancreatic cancer cells were treated with either EPE peptide (10 μM; middle bars) or Z56 (3 μM; right bars) or DMSO control (0.1%; left bars) in 1% FCS for 72 hours. […] Panc-1, AsPC-1, BxPC-3 and Mia PaCa-2 cells grown in 1% FCS medium containing either EPE peptide (10 μM), 56 (3 μM), PLX4032 (1 μM), PD184352 (5 μM) or DMSO control (0.1%). The graphs present the kinetics of cell proliferation at the indicated times after the treatment started. Quantification of all viable cells was done by methylene blue and repeated 3 times in triplicates. All results presented as a fold change of the initial cell number and represent averages ±SE.\nCells were seeded at low confluence into 24, 48 or 96-well plates in complete medium. After 24 hours, medium was replaced by 1% FCS (fetal calf serum) containing appropriate treatments. Fresh medium containing the same agents was replaced every day. After 72 or 96 hours of treatment, cells were fixed with 4% formaldehyde overnight at 23° C., washed once with 0.1 M borate buffer (pH 8.5) for 10 minutes, and stained with of 1% methylene blue in 0.1 M borate buffer (pH 8.5) for 30 minutes. Excess stain was washed out with distilled water. Color was extracted by adding 0.1 M HCl (3 hours, 23° C.), and absorbance measured at 595 nm in an ELISA reader. For time course experiments, attached cells were fixed and measured at 0, 24, 48, 72 and 96 hours. For dose-response experiments, cells were treated with indicated concentrations of reagent, fixed and stained after 72 hours as above.\nActivating mutations in Ras are found in more than 95% of pancreatic cancers where signaling through both Raf and Akt pathway drives cancer progression [Campbell et al., Cancer Res 2007, 67:2098-2106]. However, no effective treatments that target this mutant protein have reached the clinic to date, and pancreatic ductal adenocarcinoma remains an almost universally fatal disease [Bryant et al., Trends Biochem Sci 2014, 39:91-100]. Therefore, treating these pancreatic cancer cells downstream of Ras, without overactivating the Akt pathway, should be at least partially beneficial. The effect of Compound Z56 (and EPE peptide) on cell viability of Ras-transformed (and Ras-wild type) pancreatic cancer cells was determined, using a variety of cell lines.\nThe effects of Compound Z56 on the viability of pancreatic cancer cell lines at various times after treatment was compared with those of PLX4032 (a B-Raf inhibitor) and PD184352 (a MEK1/2 inhibitor)."}},
  "note": "*: point of attachment. Myristoyl = CCCCCCCCCCCCCC(=O)*",
  "data": [
    {"substance": "EPE peptide: peptide GQLNHILGILGEPEQEDL (SEQ ID NO: 1) conjugated at N-terminus to myristic acid and C-terminal amidated (Myristoyl-GQLNHILGILGEPEQEDL-NH2; SMILES CCCCCCCCCCCCCC(=O)NCC(=O)N[C@@H](CCC(N)=O)C(=O)N[C@@H](CC(C)C)C(=O)N[C@@H](CC(N)=O)C(=O)N[C@@H](Cc1c[nH]cn1)C(=O)N[C@H](C(=O)N[C@@H](CC(C)C)C(=O)NCC(=O)N[C@H](C(=O)N[C@@H](CC(C)C)C(=O)NCC(=O)N[C@@H](CCC(=O)O)C(=O)N1CCC[C@H]1C(=O)N[C@@H](CCC(=O)O)C(=O)N[C@@H](CCC(N)=O)C(=O)N[C@@H](CCC(=O)O)C(=O)N[C@@H](CC(=O)O)C(=O)N[C@@H](CC(C)C)C(N)=O)[C@@H](C)CC)[C@@H](C)CC) [reference compound]", "values": [
      {"measurement": "viability of PC3 cells", "setting": "PC3 cells", "value": "only a very modest effect"},
      {"measurement": "degree of ERK1/2 nuclear localization induced by TPA (percentage of cells with nuclear ERK1/2 staining)", "setting": "[1]; 2 hours pretreatment, MCF7, A2352, HB2 and HeLa cells", "value": "phenotype similar to the basal state"},
      {"measurement": "nuclear accumulation of ERK1/2 upon TPA stimulation", "setting": "[1]; 2 hours, A2185 and A2352 cells", "value": "inhibited"},
      {"measurement": "viability of BRAF melanoma cells A2058", "setting": "A2058 cells", "value": "lack of effect"},
      {"measurement": "combination with the MEK inhibitor trametinib, viability of NRAS-mutant melanomas", "setting": "[2]", "value": "exhibited synergy"},
      {"measurement": "viability of BRAF-mutant, NRAS-mutant and NF1-mutant melanomas", "setting": "[2]", "value": "significantly reduced the viability"},
      {"measurement": "interaction of importin7 and ERK1/2 and nuclear translocation of ERK1/2", "setting": "[3]", "value": "blocks the interaction of importin7 and ERK1/2"},
      {"measurement": "proliferation of PC3, A2058 and MCF7 cells", "setting": "[4]", "value": "not significantly affected"},
      {"measurement": "apoptosis / proliferation of EPE-sensitive cell lines", "setting": "[4]; HeLa, A2352, A2185, LOX-IMVI, A4132, Z2024, MDA-MB-231", "value": "induced apoptosis"},
      {"measurement": "proliferation/viability", "setting": "[5]; 4 Ras-transformed pancreatic cell lines other than Panc-1 and AsPC-1", "value": "no major effect"},
      {"measurement": "reduction of cell proliferation relative to control", "setting": "[5]; Ras-wild type BxPC-3 cells", "value": 50, "unit": "%"},
      {"measurement": "cell viability and apoptosis", "setting": "[5]; only 2 of the 7 tested cell lines (Panc-1 and AsPC-1)", "value": "reduced cell viability and induced apoptosis"}
    ]}
  ]
}
